Several values for one entry are separate records, joined by “and”; a condition that tells them apart may be missing. Equal entries are not always repeated.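 Method: 48-hour compound exposure of cells in 96-well plates, five concentrations, linear interpolation of endpoints. Here, GI50 denotes the concentration required for 50% inhibition of growth. TGI is the concentration that stops growth completely.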 Bounds are passed on as bounds.

The first experiment has as its system U251 CNS. Briefly: growth of human tumour cells (NCI), 48 h.
As to `O=C(O)CN(CCN(CC(=O)O)CC(=O)O)CC(=O)O.[Mn+2]`, the GI50 was greater than 100 µM and the TGI is greater than 100 µM.

The compound `CCO/C=C1\SC(=S)N(c2ccc(OCC)cc2)C1=O` gave a TGI greater than 100 µM.

For the compound `Nc1nc(=S)c2ncn(C3OC(COP(=O)(O)O)C(O)C3O)c2[nH]1` (configuration not stated), the GI50 is 8.08 µM and the TGI was greater than 100 µM.

`O=C(Nc1ccc(OC(F)(F)Cl)cc1)c1cnc(N2CC[C@@H](O)C2)c(-c2ccn[nH]2)c1`: the GI50 was 11.8 µM and the TGI was determined as 26.6 µM.

Turning to `NC(N)=NCCCC(NCc1c2ccccc2nc2ccccc12)C(=O)O` (configuration not stated), the TGI was greater than 100 µM.

In the case of `CC(=O)O[C@H]1CC2C(C3CC[C@H](C(C)CCC(=O)O)[C@]31C)[C@H](OC(C)=O)C[C@@H]1CC3(CC[C@]21C)OOC1(CCC(C)CC1)OO3` (some centres not stated), the TGI was 17.2 µM and 3.71 µM.

With `Cc1cnc(C(=O)NNc2nc3sc4c(c3c(=O)[nH]2)C(C)CCC4)cn1` (configuration not stated), the GI50 is 0.603 µM and the TGI is greater than 100 µM.

`O=C1c2ccccc2C(=O)c2c(NC3CCCCC3)ccc(Nc3ccc(S(=O)(=O)O)cc3)c21`: the TGI is 88.7 µM.

Consider `CN(C)c1ccc(-c2cc(-c3ccc(Nc4nc(Nc5ccc(Cl)cc5)nc(Nc5ccc(Cl)cc5)n4)cc3)nc(N)c2C#N)cc1`, for which the GI50 is 10.7 µM and the TGI is greater than 100 µM.

Take `COCCN(Cc1ccc(F)cc1)c1ccc(CO)c(Cl)c1`: the GI50 is 6.33 µM and the TGI was greater than 54.7 µM.

Consider `COc1ccc(C(O)c2cc3c(N)c(C(=O)Nc4cccc5ccccc45)sc3nc2C)cc1` (configuration not stated), for which the GI50 is 0.372 µM and the TGI was greater than 42.5 µM.

As to `O=C(COc1ccc(/C=C2\Oc3ccccc3C2=O)cc1)Nc1nc2ccccc2s1`, the GI50 was 6.35 µM and the TGI is greater than 100 µM.

The compound `CC12OC(=O)C(C#N)C1(C)C1C(=O)CCCC12` (configuration not stated) showed a TGI greater than 100 µM.

The subject of another experiment is OVCAR-8 ovarian. As to the kind of experiment: growth of human tumour cells (NCI), 48 h.
Take `O=C(O)CN(CCN(CC(=O)O)CC(=O)O)CC(=O)O.[Mn+2]`: the GI50 is greater than 100 µM and the TGI was greater than 100 µM.

As to `CCO/C=C1\SC(=S)N(c2ccc(OCC)cc2)C1=O`, the TGI is greater than 100 µM.

For the compound `Nc1nc(=S)c2ncn(C3OC(COP(=O)(O)O)C(O)C3O)c2[nH]1` (configuration not stated), the GI50 was 0.715 µM and the TGI is greater than 100 µM.

Regarding `O=C(Nc1ccc(OC(F)(F)Cl)cc1)c1cnc(N2CC[C@@H](O)C2)c(-c2ccn[nH]2)c1`, the GI50 was 10.8 µM and the TGI was determined as 54.6 µM.

On to `NC(N)=NCCCC(NCc1c2ccccc2nc2ccccc12)C(=O)O` (configuration not stated), for which the TGI was greater than 86 µM.

`CC(=O)O[C@H]1CC2C(C3CC[C@H](C(C)CCC(=O)O)[C@]31C)[C@H](OC(C)=O)C[C@@H]1CC3(CC[C@]21C)OOC1(CCC(C)CC1)OO3` (some centres not stated): the TGI is 14.1 µM and 5.66 µM.

With `Cc1cnc(C(=O)NNc2nc3sc4c(c3c(=O)[nH]2)C(C)CCC4)cn1` (configuration not stated), the GI50 is 0.952 µM and the TGI was determined as 16 µM.

The compound `O=C1c2ccccc2C(=O)c2c(NC3CCCCC3)ccc(Nc3ccc(S(=O)(=O)O)cc3)c21` registered a TGI greater than 100 µM.

With `CN(C)c1ccc(-c2cc(-c3ccc(Nc4nc(Nc5ccc(Cl)cc5)nc(Nc5ccc(Cl)cc5)n4)cc3)nc(N)c2C#N)cc1`, the GI50 is 6.38 µM and the TGI is greater than 100 µM.

Take `COCCN(Cc1ccc(F)cc1)c1ccc(CO)c(Cl)c1`: the GI50 was 29.9 µM and the TGI was greater than 100 µM.

In the case of `COc1ccc(C(O)c2cc3c(N)c(C(=O)Nc4cccc5ccccc45)sc3nc2C)cc1` (configuration not stated), the GI50 is 0.373 µM and the TGI was greater than 100 µM.

As to `O=C(COc1ccc(/C=C2\Oc3ccccc3C2=O)cc1)Nc1nc2ccccc2s1`, the GI50 is 0.321 µM and the TGI is greater than 100 µM.

`CC12OC(=O)C(C#N)C1(C)C1C(=O)CCCC12` (configuration not stated): the TGI is greater than 100 µM.

In the next experiment the test system is HCT-15 colon. Briefly: growth of human tumour cells (NCI), 48 h.
With `O=C(O)CN(CCN(CC(=O)O)CC(=O)O)CC(=O)O.[Mn+2]`, the GI50 was greater than 100 µM and the TGI was greater than 100 µM.

Take `CCO/C=C1\SC(=S)N(c2ccc(OCC)cc2)C1=O`: the TGI was greater than 100 µM.

Consider `Nc1nc(=S)c2ncn(C3OC(COP(=O)(O)O)C(O)C3O)c2[nH]1` (configuration not stated), for which the GI50 is 1.72 µM and the TGI is greater than 100 µM.

In the case of `O=C(Nc1ccc(OC(F)(F)Cl)cc1)c1cnc(N2CC[C@@H](O)C2)c(-c2ccn[nH]2)c1`, the GI50 was 7.61 µM and the TGI came to 24.2 µM.

In turn, `NC(N)=NCCCC(NCc1c2ccccc2nc2ccccc12)C(=O)O` (configuration not stated) registered a TGI greater than 100 µM.

Regarding `CC(=O)O[C@H]1CC2C(C3CC[C@H](C(C)CCC(=O)O)[C@]31C)[C@H](OC(C)=O)C[C@@H]1CC3(CC[C@]21C)OOC1(CCC(C)CC1)OO3` (some centres not stated), the TGI is 13.9 µM and 7.4 µM.

`Cc1cnc(C(=O)NNc2nc3sc4c(c3c(=O)[nH]2)C(C)CCC4)cn1` (configuration not stated): the GI50 is 0.411 µM and the TGI came to 23.6 µM.

The compound `O=C1c2ccccc2C(=O)c2c(NC3CCCCC3)ccc(Nc3ccc(S(=O)(=O)O)cc3)c21` displayed a TGI greater than 100 µM.

In the case of `CN(C)c1ccc(-c2cc(-c3ccc(Nc4nc(Nc5ccc(Cl)cc5)nc(Nc5ccc(Cl)cc5)n4)cc3)nc(N)c2C#N)cc1`, the GI50 was 3.7 µM and the TGI was greater than 100 µM.

As to `COCCN(Cc1ccc(F)cc1)c1ccc(CO)c(Cl)c1`, the GI50 is 30.6 µM and the TGI was greater than 100 µM.

Take `COc1ccc(C(O)c2cc3c(N)c(C(=O)Nc4cccc5ccccc45)sc3nc2C)cc1` (configuration not stated): the GI50 is 0.326 µM and the TGI is greater than 48.7 µM.

As to `O=C(COc1ccc(/C=C2\Oc3ccccc3C2=O)cc1)Nc1nc2ccccc2s1`, the GI50 was 33.8 µM and the TGI was greater than 100 µM.

The compound `CC12OC(=O)C(C#N)C1(C)C1C(=O)CCCC12` (configuration not stated) returned a TGI greater than 100 µM.

Another experiment concerns SF-295 CNS. As to the kind of experiment: growth of human tumour cells (NCI), 48 h.
For `O=C(O)CN(CCN(CC(=O)O)CC(=O)O)CC(=O)O.[Mn+2]`, the GI50 was greater than 100 µM and the TGI was greater than 100 µM.

`CCO/C=C1\SC(=S)N(c2ccc(OCC)cc2)C1=O`: the TGI was greater than 100 µM.

As to `Nc1nc(=S)c2ncn(C3OC(COP(=O)(O)O)C(O)C3O)c2[nH]1` (configuration not stated), the GI50 was 0.378 µM and the TGI is greater than 100 µM.

Consider `O=C(Nc1ccc(OC(F)(F)Cl)cc1)c1cnc(N2CC[C@@H](O)C2)c(-c2ccn[nH]2)c1`, for which the GI50 is 10.6 µM and the TGI was 26 µM.

Turning to `NC(N)=NCCCC(NCc1c2ccccc2nc2ccccc12)C(=O)O` (configuration not stated), the TGI is greater than 100 µM.

As to `CC(=O)O[C@H]1CC2C(C3CC[C@H](C(C)CCC(=O)O)[C@]31C)[C@H](OC(C)=O)C[C@@H]1CC3(CC[C@]21C)OOC1(CCC(C)CC1)OO3` (some centres not stated), the GI50 is 7.46 µM and 2.25 µM; the TGI is 19.8 µM and 5.53 µM.

Take `Cc1cnc(C(=O)NNc2nc3sc4c(c3c(=O)[nH]2)C(C)CCC4)cn1` (configuration not stated): the GI50 was 1.08 µM and the TGI came out at 14.6 µM.

Take `O=C1c2ccccc2C(=O)c2c(NC3CCCCC3)ccc(Nc3ccc(S(=O)(=O)O)cc3)c21`: the TGI is greater than 100 µM.

Regarding `CN(C)c1ccc(-c2cc(-c3ccc(Nc4nc(Nc5ccc(Cl)cc5)nc(Nc5ccc(Cl)cc5)n4)cc3)nc(N)c2C#N)cc1`, the GI50 was 13.9 µM and the TGI was greater than 100 µM.

Turning to `COCCN(Cc1ccc(F)cc1)c1ccc(CO)c(Cl)c1`, the GI50 is 3.83 µM and the TGI is greater than 100 µM.

For the compound `COc1ccc(C(O)c2cc3c(N)c(C(=O)Nc4cccc5ccccc45)sc3nc2C)cc1` (configuration not stated), the GI50 was 3.4 µM and the TGI was greater than 100 µM.

With `O=C(COc1ccc(/C=C2\Oc3ccccc3C2=O)cc1)Nc1nc2ccccc2s1`, the GI50 was 28.7 µM and the TGI is greater than 75.3 µM.

In turn, `CC12OC(=O)C(C#N)C1(C)C1C(=O)CCCC12` (configuration not stated) returned a TGI greater than 100 µM.

A further experiment has as its system SF-539 CNS. As to the kind of experiment: growth of human tumour cells (NCI), 48 h.
For the compound `O=C(O)CN(CCN(CC(=O)O)CC(=O)O)CC(=O)O.[Mn+2]`, the GI50 is greater than 100 µM and the TGI was greater than 100 µM.

In the case of `CCO/C=C1\SC(=S)N(c2ccc(OCC)cc2)C1=O`, the TGI is greater than 100 µM.

Consider `Nc1nc(=S)c2ncn(C3OC(COP(=O)(O)O)C(O)C3O)c2[nH]1` (configuration not stated), for which the GI50 was 2.32 µM and the TGI is greater than 100 µM.

For the compound `O=C(Nc1ccc(OC(F)(F)Cl)cc1)c1cnc(N2CC[C@@H](O)C2)c(-c2ccn[nH]2)c1`, the GI50 was 13.6 µM and the TGI stood at 29.1 µM.

`NC(N)=NCCCC(NCc1c2ccccc2nc2ccccc12)C(=O)O` (configuration not stated): the TGI was greater than 100 µM.

For `CC(=O)O[C@H]1CC2C(C3CC[C@H](C(C)CCC(=O)O)[C@]31C)[C@H](OC(C)=O)C[C@@H]1CC3(CC[C@]21C)OOC1(CCC(C)CC1)OO3` (some centres not stated), the GI50 was 8.15 µM and 1.94 µM; the TGI is 20.6 µM and 3.86 µM.

As for `Cc1cnc(C(=O)NNc2nc3sc4c(c3c(=O)[nH]2)C(C)CCC4)cn1` (configuration not stated), the GI50 is 0.918 µM and the TGI is 10.2 µM.

For the compound `O=C1c2ccccc2C(=O)c2c(NC3CCCCC3)ccc(Nc3ccc(S(=O)(=O)O)cc3)c21`, the TGI was greater than 100 µM.

On to `CN(C)c1ccc(-c2cc(-c3ccc(Nc4nc(Nc5ccc(Cl)cc5)nc(Nc5ccc(Cl)cc5)n4)cc3)nc(N)c2C#N)cc1`, for which the GI50 was 19.8 µM and the TGI was greater than 100 µM.

`COCCN(Cc1ccc(F)cc1)c1ccc(CO)c(Cl)c1`: the GI50 is greater than 71.3 µM and the TGI is greater than 100 µM.

For the compound `COc1ccc(C(O)c2cc3c(N)c(C(=O)Nc4cccc5ccccc45)sc3nc2C)cc1` (configuration not stated), the GI50 is 0.025 µM and the TGI stood at 0.0698 µM.

For `O=C(COc1ccc(/C=C2\Oc3ccccc3C2=O)cc1)Nc1nc2ccccc2s1`, the GI50 was 3.16 µM and the TGI is greater than 100 µM.

In turn, `CC12OC(=O)C(C#N)C1(C)C1C(=O)CCCC12` (configuration not stated) displayed a TGI greater than 100 µM.
